One molecule from US20210113492A1, “METHOD FOR INHIBITING PROLIFERATION AND METASTASIS OF CANCER CELLS BY USING NAPHTHOQUINONE DERIVATIVE” (National Tsing Hua University, priority 2019, published 2021) can be followed below.

One test relates to mitochondrial complex IV. Kind of test: Mitochondrial complex activity in permeabilized cells (Oroboros). In kind it is cell-based, human. The following applies: OC3-IV2 permeabilized with 5 μM digitonin; 2.5 μM. As for the experimental part: For the cell permeabilization and measurement of mitochondrial complex activity in permeabilized cells using Oroboros Instruments, 5×10^5 cells/mL treated with DMSO or 2.5 μM isoplumbagin suspended in 2 mL MiR05 buffer (110 mM D-sucrose, 0.5 mM EGTA, 3.0 mM MgCl2, 60 mM lactobionic acid, 10 mM KH2PO4, 20 mM taurine, 20 mM HEPES, 1 g/L BSA, pH 7.1) were added in O2k Oxygraph chambers. After cells had stabilized at routine respiration, plasma membrane permeabilization was performed by adding 5 μM digitonin and then O2 consumption rate was measured in response to sequential additions of 10 mM glutamate and 2 mM malate or 10 mM succinate, followed by 5 mM ADP, […], 0.5 μM FCCP, 1 μM rotenone, 1 μM antimycin A, 0.1 mM TMPD, 0.4 mM ascorbate and 5 mM NaN3.
FIGS. 6A and 6B show the inhibitory effect of isoplumbagin on mitochondrial function and complex IV activity of oral squamous cell carcinoma cells (OC3-IV2). Oxygen consumption rate (OCR) of OC3-IV2 cells treated with DMSO (as control) or 2.5 μM isoplumbagin were measured by Oroboros instruments (FIG. 6A). […] OC3-IV2 cells treated with DMSO or 2.5 μM isoplumbagin were permeabilized with 5 μM digitonin (Dig) and added indicated substrates and inhibitors, and then mitochondria complex I/IV activity were determined by Oroboros instruments (FIG. 6B). […]

Test [1] has as its system oral squamous cell carcinoma cells (OC3-IV2). Kind of test: Boyden chamber invasion assay, OC3-IV2. In kind it is cell-based, human. To be noted: 5, 7.5 and 10 μM, 24 h, dose dependency (FIG. 2A). As to the method: (§1) Cells were harvested by […] and resuspended in a serum-free medium with 0.1% BSA. Then, […] of cell suspension (2×10^5 cells) was seeded into the upper insert of SPLInsert with Polyethylene terephthalate (PET) membrane (pore size: 8.0 μm) (SPL Lifesciences, Korea) pre-coated with matrigel (BD Biosciences, San Jose, Calif.). The bottom well of 24-well plate of SPLInsert was filled with cell medium containing 10% FBS with different concentrations of isoplumbagin (5, 7.5 and 10 μM, Experimental group of oral squamous cell carcinoma cells (OC3-IV2); 2.5, 5 and 10 μM, Experimental groups of human primary glioblastoma cells (U87), human non-small cell lung carcinoma cells (H1299), human prostate cancer cells (PC3) and human cervical cancer cells (Hela)) or without isoplumbagin (DMSO added). […] Number of cells was counted using Image J. Relative invasion ability was calculated as cell number per area.
(§2) FIGS. 2A-2E show the inhibitory effect of different doses of isoplumbagin on invasion for oral squamous cell carcinoma cells (OC3-IV2), human primary glioblastoma cells (U87), human non-small cell lung carcinoma cells (H1299), prostate cancer cells (PC3) and cervical cancer cells (Hela) assessed with the Boyden chamber assays. *Compared with solvent control (DMSO). […]

A further test addresses T1, NQO1 (Homo sapiens, UniProt P15559).
T1 construct: endogenous in cells; host or cells: OC3-IV2 (human oral squamous cell carcinoma), cytosolic fraction / lysate supernatant
Kind of test: NQO1 enzymatic activity assay (substrate reduction with NADH and WST1). The following applies: cytosolic fractions of OC3-IV2 cells; isoplumbagin 5 μM and 10 μM, menadione 1X and 2X. In kind it is biochemical. As to the method:
FIG. 4 proves that isoplumbagin is a substrate of NQO1. The cytosolic fractions of OC3-IV2 cells were used for the NQO1 enzymatic activity assay. The NQO1 enzyme activity was calculated by measuring the simultaneous reduction of menadione or isoplumbagin with cofactor NADH and WST1 (a highly sensitive tetrazolium reagent) which leads to increased absorbance at 450 nm. NQO1 activity assay kit (#ab184867) was purchased from Abcam (Cambridge, Mass., USA). OC3-IV2 cells were lysed with 1X extraction buffer containing 1 mM phenylmethylsulfonyl fluoride (PMSF) for 15 min on ice, and then centrifuged at 17,000×g at 4° C. for 20 min. The supernatant was collected and then the protein concentration of each sample was determined by BCA assays (Santa Cruz Biotechnology). Diluted sample and reaction buffer were added into 96-wells plate containing menadione (1X and 2X) or different concentrations of isoplumbagin (5 μM and 10 μM) with cofactor NADH and WST1. The absorbance of reduced WST1 was measured at 450 nm wavelengths by a spectrophotometer. Data from three independent experiments are presented as mean ±SEM (*P<0.05 compared with no substrate, paired Student's t-test).

For test [2], the system named is human primary glioblastoma cells (U87). Put plainly: Boyden chamber invasion assay, U87. In kind it is cell-based. To be noted: 2.5, 5 and 10 μM, 24 h, no dose dependency (FIG. 2B). As for the experimental part:
as §1, §2

T1 sequence (P15559 whole entry): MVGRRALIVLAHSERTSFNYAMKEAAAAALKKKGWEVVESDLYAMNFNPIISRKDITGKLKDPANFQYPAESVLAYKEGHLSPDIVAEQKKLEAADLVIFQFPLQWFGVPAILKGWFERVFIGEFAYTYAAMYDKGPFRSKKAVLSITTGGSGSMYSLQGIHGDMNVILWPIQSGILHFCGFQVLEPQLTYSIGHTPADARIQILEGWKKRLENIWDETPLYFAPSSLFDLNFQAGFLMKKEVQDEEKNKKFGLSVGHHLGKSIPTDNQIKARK

For `CC1=CC(=O)c2cccc(O)c2C1=O` [isoplumbagin, 5-hydroxy-3-methyl-1,4-naphthoquinone], in the test on mitochondrial complex IV, the “mitochondrial complex IV activity” value is given as “inhibiting mitochondrial complex IV activity”. Also, the “cancer cells migrating through the membrane (invasion)” value in test [1] and in test [2] was “decrease significantly” throughout. The “substrate of NQO1 (reduction with NADH and WST1, absorbance at 450 nm)” value on NQO1 is “substrates of NQO1”.
